Experiments:
IR = IR phosphorylation by Western blot in CHO-IR cells; assay type: cell-based; conditions: anti-phosphorylated IR antibody
Experimental: (§1) FIG. 6 illustrates that novel TGQ compounds stimulate IR and Akt phosphorylation in CHO-IR cells and Akt phosphorylation in 3T3-L1 fat cells. CHO-IR cells or 3T3-L1 adipocytes were induced under conditions as shown. Total protein was isolated from the cells and subjected SDS-PAGE and subsequently transferred to a […] membrane. The proteins on the membrane were detected by anti-phosphorylated IR or Akt antibodies. […] Thirty to 60 μg of total protein and the biotinylated protein marker was mixed with SDS sample buffer and heated at 95-100° C. for 5 minutes. Then, each sample and a marker were subjected to 8% SDS POLYACRYLAMIDE GEL ELECTROPHORESIS (SDS-PAGE). After electrophoresis, the proteins on the gel were transferred to a nitrocellulose. The nitrocellulose membrane was blocked, and then incubated with the desired primary antibody (specifically against either phosphorylated form of IR or Akt) overnight at 4° C. with gentle agitation. After overnight incubation, the membrane was washed, and then incubated with the HRP-conjugated secondary antibody for 1 hour at room temperature. Then, the membrane was washed, the proteins on the membrane were detected by a Western blotting LumiGLO system (Cell Signaling Tech, Inc) and finally visualized by exposing the membrane to an x-ray film in a cassette for a proper time, usually from 1 to 10 minutes.

Akt = Akt phosphorylation by Western blot in CHO-IR cells and 3T3-L1 adipocytes; assay type: cell-based; conditions: CHO-IR cells or 3T3-L1 adipocytes; anti-phosphorylated Akt antibody
Experimental: as §1

Glut4 = Glut4 translocation by immunostaining and confocal microscopy in 3T3-L1 adipocytes; assay type: cell-based; conditions: FIG. 3
Experimental: (§2) FIG. 3 illustrates induced Glut4 translocation. 3T3-L1 adipocytes were either uninduced, or induced by 1 μM insulin, or 30 μM 6Cl-α-TGQ. The treated cells were immunostained with an anti-Glut4 antibody followed with the secondary antibody (Fluorescein (FITC)-conjugated affinipure F(ad′)2 fragment Donkey anti-Mouse IgG). The cells were then mounted for microscopic visualization. The immunostained cells were visualized with a Zeiss LSM510 confocal microscope at wavelength of 488 nm for excitation and 520 nm for emission.
as §2, with “The” for “FIG. 3 illustrates induced Glut4 translocation. 3T3-L1 adipocytes were either uninduced, or induced by 1 μM insulin, or 30 μM 6Cl-α-TGQ. The”

3T3-L1 preadipocytes [1] = assay: MDI-induced differentiation of 3T3-L1 preadipocytes into adipocytes, measured by glucose uptake; assay type: cell-based; conditions: MDI plus 20 μM compound; ten days after induction; FIG. 4
Experimental: FIG. 4 illustrates adipocyte differentiation induced by MDI. […] Ten days after the induction, cells were assayed for their respective ability to take up glucose from the media by a radioactive glucose uptake assay. Each sample (condition) was in triplicate. The concept that adipocyte differentiation can be indirectly measured by glucose uptake was based on the observation that only differentiated adipocytes can take up glucose through a Glut4-mediated pathway while undifferentiated preadipocytes cannot.
To determine the effective concentration of the compounds of Formula I, II, or III to use in preventing adipogenesis in vitro, undifferentiated preadipocytes are incubated either with a differentiation-induction cocktail, comprised of 3-isobutyl-1-methylxanthine, dexamethasone, and insulin (MDI); or with MDI plus the test compound. After about 10 days MDI induces differentiation, which is clearly visible as the change from fibroblast-like preadipocytes to round-shaped, fat vesicle-containing adipocytes. […]
Ten days after the induction, cells were assayed for their respective ability to take up glucose from the media by a standard radioactive glucose uptake assay. […] The adipocyte differentiation can be measured by glucose uptake because only differentiated adipocyte can take up glucose through Glut4-mediated pathway while undifferentiated preadipocytes cannot.

3T3-L1 adipocytes = assay: Glucose uptake ([3H] 2-deoxy-D-glucose) assay in 3T3-L1 adipocytes; assay type: cell-based; conditions: for glucose transport inducing activity compared with α-PGG: α-PGG 30 μM
Experimental: Glucose uptake activity in cells may be analyzed by measuring the uptake of 2-deoxy-D-[3H] glucose using a standard assay. Confluent 3T3-L1 adipocytes grown in 12-well plates are washed twice with serum-free DMEM and incubated with 1 mL of the same medium at 37° C. for 2 h. The cells are washed 3 times with Krebs-Ringer-Hepes (KRP) buffer and incubated with 0.9 mL KRP buffer at 37° C. for 30 min. Insulin (positive control) or the compounds of Formula I, II, or III (experimentals) are then added at pre-determined concentrations and adipocytes are incubated at 37° C. for 15 min. Glucose uptake is initiated by addition of 0.1 mL KRP buffer and 37 MBq/L 2-deoxy-D-[^3H] glucose and 1 mmol/L glucose as final concentrations. After 10 min, glucose uptake is terminated by washing the cells 3 times with cold PBS. The cells are lysed with 0.7 mL of 1% Triton X-100 at 37° C. for 20 min. The radioactivity retained by the cell lysates is determined by a scintillation counter. The dosage that induces the maximal glucose uptake can be selected among the experimental samples.
6Cl-α-TGQ and 6Cl-β-TGQ were synthesized as described above. α-TGQ was synthesized using methods analogous to the preparation of 6Cl-α-TGQ (Examples 1 and 2) starting from commercially available 6-deoxy-D-glucose. Alpha-pentagalloylglucose (α-PGG) was obtained. 3T3-L1 preadipocytes grown in 24-well plates were induced by MDI until they were differentiated into adipocytes. Adipocytes were washed twice with serum-free DMEM and incubated with 0.5 ml of the same medium in 10% C02 at 37 ° C. for 2 hours. The cells were washed 3 times with Kerbs-Ringer-HEPES (KRP) buffer (136 mM NaCl, 4.7 mM KCl, 1.25 mM CaCl2, 1.25 mM MgSO4 and 10 mM sodium phosphate buffer at pH 7.4) and then incubated with 0.45 ml KRP buffer at 37 ° C. for 30 minutes. Glucose transport inducing agents were individually added to the cells at predetermined concentrations and each condition was duplicated or triplicated, then the adipocytes were incubated at 37 ° C. for 15 minutes. Glucose uptake was initiated by the addition of 0.1 ml of KPR buffer supplemented with 1 μCi/ml [^3H] 2-deoxy-D-glucose and 1 mM cold glucose as the final concentration to the cells. After 10 min, the medium was aspirated and the plates were washed with ice-cold PBS three times to terminate the induced glucose uptake. The cells were lysed with 0.45 ml of 1% triton X-100 at 37 ° C. for 20 min. The radioactivity taken up by the cells was determined in a solution of 0.4 ml of the cell lysates and 5 ml of scintillation liquid using a scintillation counter (Beckman Instruments).
6Br-α-TGQ and 6Br-β-TGQ were chemically synthesized using a preparation analogous to the preparation of 6Cl-TGQ (Examples 1, 2 and 3) starting from commercially available 6-bromo-D-glucose. 6Cl-α-TGQ was synthesized as described above. Alpha-pentagalloylglucose (α-PGG) was obtained. Confluent 3T3-L1 adipocytes were purchased from ATCC and grown in 12-well plates are washed twice with serum-free DMEM and incubated with 1 mL of the same medium at 37° C. for 2 h. The cells are washed 3 times with Krebs-Ringer-Hepes (KRP) buffer and incubated with 0.9 mL KRP buffer at 37° C. for 30 min.
Glucose uptake was initiated by addition of 0.1 mL KRP buffer and 37 MBq/L 2-deoxy-D-[^3H] glucose and 1 mmol/L glucose as final concentrations, and the ^3H labeled glucose was then added to the cells for 15 min. […] The radioactivity retained by the cell lysates was determined by a scintillation counter. […]

3T3-L1 preadipocytes [2] = conditions: α-PGG used at 20 μM with MDI; cited from earlier work

Question: Which IR phosphorylation (IR) does the source give for “6-chloro-1,2,3,4-tetragalloyl-D-quinovopyranose [6Cl-TGQ]” here?
Answer: can induce IR and Akt phosphorylation

Question: What about the Akt phosphorylation (Akt) of the same compound?
Answer: can induce IR and Akt phosphorylation

Question: And the “Glut4 translocation to the cell membrane” value (Glut4; 30 μM compound)?
Answer: induced Glut4 translocation to the cell membrane

Question: For “6-chloro-1,2,3,4-tetragalloyl-D-quinovopyranose [6Cl-β-TGQ]”, which “inhibition of adipocyte differentiation” value (3T3-L1 preadipocytes [1]) is on record?
Answer: inhibit adipocyte differentiation

Question: Which “more glucose transported than the insulin controls” value (3T3-L1 adipocytes; 30 μM compound, insulin control 1 μM, FIG. 2) does the source give for `O=C(O[C@H]1O[C@H](CCl)[C@@H](OC(=O)c2cc(O)c(O)c(O)c2)[C@H](OC(=O)c2cc(O)c(O)c(O)c2)[C@H]1OC(=O)c1cc(O)c(O)c(O)c1)c1cc(O)c(O)c(O)c1` [6Cl-α-TGQ, 6-chloro-α-1,2,3,4-tetragallolyl-D-quinovopyranose] here?
Answer: 10%

Question: What about the “glucose transport activity compared with insulin” value (3T3-L1 adipocytes; insulin 1 μM, FIG. 2) of the same compound?
Answer: as active as insulin

Question: And the “glucose transport inducing activity compared with α-PGG” value (3T3-L1 adipocytes; FIG. 2)?
Answer: more active than pentagalloyl-α-D-glucopyranose (α-PGG)

Question: What about the “glucose transport inducing activity compared with α-PGG” value (3T3-L1 adipocytes; FIG. 2, listed as 6Cl-α: TGQ) of the same compound?
Answer: more active than α-PGG

Question: And the “inhibition of adipocyte differentiation” value (3T3-L1 preadipocytes [1])?
Answer: inhibit adipocyte differentiation

Question: And the “Glut4 translocation to the cell membrane” value (Glut4; 30 μM compound)?
Answer: induced Glut4 translocation to the cell membrane

Question: Which “inhibition of adipocyte differentiation (known)” value (3T3-L1 preadipocytes [2]) does the source give for `O=C(OC[C@H]1O[C@H](OC(=O)c2cc(O)c(O)c(O)c2)[C@H](OC(=O)c2cc(O)c(O)c(O)c2)[C@@H](OC(=O)c2cc(O)c(O)c(O)c2)[C@@H]1OC(=O)c1cc(O)c(O)c(O)c1)c1cc(O)c(O)c(O)c1` [α-PGG, pentagalloyl-α-D-glucopyranose] here?
Answer: known to inhibit the differentiation

Question: For `CC1OC(OC(=O)c2cc(O)c(O)c(O)c2)C(OC(=O)c2cc(O)c(O)c(O)c2)C(OC(=O)c2cc(O)c(O)c(O)c2)C1OC(=O)c1cc(O)c(O)c(O)c1` (stereo not drawn) [α-TGQ], which “glucose transport stimulatory activity” value (3T3-L1 adipocytes; various concentrations) is on record?
Answer: active

Question: With “insulin: the hormone which regulates glucose utilization; positive control” as the compound, how does the “Glut4 translocation to the cell membrane” value (Glut4; 1 μM insulin) read?
Answer: induced Glut4 translocation to the cell membrane

From patent US7687472B2, “Methods and compositions for treating hyperglycemic, hyperlipidemic, or hyperinsulinemic disorders” (Ohio University, priority 2004, dated 2010)
